In patent publication US20040132969A1, “Antibodies, peptides, analogs and uses thereof” (priority 2000, published 2004):
Entries after “also recorded” stand apart in the source; their conditions may differ.

Legend:
[1] = tested on: human umbilical vein endothelial cells (HUVEC) co-cultured with primary human diploid fibroblasts; assay: Angiosys co-culture angiogenesis assay (HUVEC tubule formation); format: cell-based
Excerpt: The recently developed Angiosys™ co-culture angiogenesis assay (TCS Cell Works, Botolph Claydon, UK) was employed to examine the biological activity of the fibrin E analogue peptides WTM33, WTM34, WTM35, WTM36, and WTM37. This assay involves the co-culturing of human umbilical vein endothelial cells (HUVEC) with primary human diploid fibroblasts. In control cultures treated by the standard method as supplied by the manufacturers, both cell populations increase in number to form a confluent fibroblast monolayer on top off which the HUVEC cells form into corded structures. These structures thicken and anastomose by day 14 to form an intricate network of microvessel-like structures that resemble a capillary bed. It has previously been shown that the control conditions in this assay result in an intermediate degree of formation of these microtubules that can be enhanced by angiogenic effectors such as vascular endothelial growth factor (VEGF), or reduced by anti-angiogenic agents such as suramin (33).
The Angiosys™ assay was used as directed by the manufacturer. Briefly, HUVEC and human diploid fibroblasts were admixed, seeded into 24-well culture plates and incubated for 14 days in endothelial cell culture medium (ECM, TCS Cell Works). This medium, which was replaced with fresh every second day, contains angiogenic factors such as VEGF. Fibrin E analogue peptides were dissolved in this same medium to the indicated concentrations and applied to the cells in the same way as control medium. After the incubation period of 14 days, medium was removed and the cells were fixed in situ at room temperature in 70% ethanol and viewed with an MRC 600 confocal microscope (Bio-Rad). Images were captured using a JVC videocamera mounted on the microscope and coupled to a Neotech Image Grabber/PC.
The table illustrates the […] effects of peptide WTM 35 and 36 (0.19-0.75 μg/ml) on HUVEC tubule formation in the Angiosys™ co-culture angiogenesis assay, compared with an untreated control. The table show the average tubule length obtained using an image analysis package for the PC which transforms the visual data into pixels: […]

[2] = tested on: chick chorioallantoic membrane (CAM) vessels; assay: Vessel counting assay using CAM model; format: in vivo
Procedure: The CAM were prepared as for the tritiated thymidine assay.
Dulbecco's phosphate buffered saline was used as a control. A range of concentrations of peptides WTM33, WTM34, and WTM35 (1.875, 3.75, 7.5, 15, 30, and 60 μg/ml) were added to the CAM. Inoculations of 0.2 ml of the peptide were carried out on days 10,11 and 12 of CAM development, and then fixed using formalin on day 15.
After fixing in formalin for 2 days the CAM were excised and spoke like sections cut from the centre of the CAM to the outer edge. These were embedded in wax and processed on to slides with H&E staining to visualise the vessels in the section. The numbers of vessels per field of vision, over 10 fields were counted using an Olympus microscope. [Eyepieces set at 58, using ×40 (0.65) lens, from the graticule diameter of field is 0.45 mm, and therefore 1 mm is equal to 2.22 fields of view.] The average number of vessels/field of view×2.22 gives number of vessels/mm of CAM.

[3] = tested on: chick chorioallantoic membrane (CAM); assay: CAM cell proliferation assay (DNA synthesis, methyl-[3H]thymidine), substance alone; format: in vivo
Procedure: Cell proliferation was measured using the chick chorioallantoic membrane (CAM) model as described previously (4, 29, 30).
Briefly, on day zero, fertile hens' eggs, are placed in an egg incubator 37.5° C. with pointed ends facing downwards. On day 3, using a 2 ml syringe with a 21G needle, 2 ml of albumen is removed and the eggs returned to the incubator. On day 4, each egg is punctured by a needle at the blunt end into the air space. A square of shell is then removed, causing the egg contents to drop into the space left by collapse of the air space at the end of the egg and the withdrawal of albumen. The volume of the space above the dropped CAM is approximately 7 ml. The square opening in the shell is covered with Sellotape (RTM). The eggs then have to be kept level in the incubator without tilting. On day 10, the surviving eggs are organised into groups of preferably no less than 10. Test and control samples are prepared and each egg receives 0.3 ml of sample injected through the Sellotape (RTM) onto the upper surface of the CAM.
The technique of removal of each CAM is simple but crucial to the rationale of achieving results expressed as total DPM per CAM. […]
The assay used is based on quantitative measurement of DNA synthesis in the CAM after exposure to control and test substances 18 h after application in liquid form to the whole “dropped” area of each CAM (4,29). […]

LHADPDLGVLCPTGC [WTM34]
HUVEC tubule formation (in words) ([1]; 0.75, 0.38 and 0.19 μg/ml): inhibit HUVEC tubule formation; also recorded: complete inhibition - no tubule
toxic effect (number of fibroblasts and endothelial cells present) ([1]; Angiosys system): did not have a toxic effect
HUVEC tubule formation (in words) ([1]; across the range of / all concentrations): inhibition of HUVEC tubule formation; also recorded: most inhibitory
HUVEC tubule formation (in words) ([1]; lowest applied doses of 3 μg/ml): markedly reduced the formation of tubules
effect on vessel number ([2]; 30 microgrammes/ml): significant reduction in the number of vessels
effect on number of vessels per mm of CAM ([2]; across the range of concentrations tested (1.875-60 μg/ml)): inhibits cell proliferation and vessel formation in the CAM
effect on number of vessels per mm of CAM ([2]; across the range of concentrations tested (1.875-60 μg/ml), listed as WTM 34): more dramatic biphasic reaction
effect on number of vessels per mm of CAM ([2]; higher dose range / very high doses): significant reduction in vessel formation
effect on vessel number ([2]; low doses): stimulatory effect on vessel number
maximum inhibition in the CAM assay ([3]; peptide alone, highest dose tested (20 micromoles)): 60%
effect on cell proliferation relative to control ([3]; substance alone, across the range of concentrations tested): inherent inhibitory effect on cell stimulation; also recorded: inhibits cell proliferation and vessel formation in the CAM; also recorded: inhibitory effects
